Source: publication PMC10008561 (Nature Communications, 2023)
Where “and” joins values, the source holds several entries; their conditions need not be identical. Identical values can stand only once. Like-named read-outs stand apart in the source and are kept apart here.

Experiments:
Experiment in all cases: cell-based
human KOR (Gi1) [1] = target: T1, human KOR (Gi1) (Homo sapiens, UniProt P41145)
T1 construct: expressed in transfected cells; host or cells: HEK293T

human KOR (Gi1) [2] = target: T2, human KOR (Gi1) (Homo sapiens, UniProt P41145, D105A); conditions: HEK-293T
T2 construct: expressed in transfected cells; host or cells: HEK293T
T2 sequence (P41145 whole entry D105A): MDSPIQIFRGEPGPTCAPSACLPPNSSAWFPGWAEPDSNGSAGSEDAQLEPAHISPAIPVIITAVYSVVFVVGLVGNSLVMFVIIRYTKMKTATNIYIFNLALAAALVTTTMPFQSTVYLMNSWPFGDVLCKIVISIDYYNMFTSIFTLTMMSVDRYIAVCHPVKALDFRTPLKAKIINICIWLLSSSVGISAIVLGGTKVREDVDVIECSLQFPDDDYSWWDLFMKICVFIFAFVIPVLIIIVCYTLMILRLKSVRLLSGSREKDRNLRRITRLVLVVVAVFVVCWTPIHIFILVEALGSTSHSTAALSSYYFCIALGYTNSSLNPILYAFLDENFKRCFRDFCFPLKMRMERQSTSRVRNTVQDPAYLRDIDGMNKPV

human KOR (Gi1) [3] = target: T3, human KOR (Gi1) (Homo sapiens, UniProt P41145, D155A); conditions: HEK-293T
T3 construct: expressed in transfected cells; host or cells: HEK293T
T3 sequence (P41145 whole entry D155A): as the sequence (P41145 whole entry D105A) above, with A105D, D155A counted along it

human KOR (Gi1) [4] = target: T4, human KOR (Gi1) (Homo sapiens, UniProt P41145, D266A); conditions: HEK-293T
T4 construct: expressed in transfected cells; host or cells: HEK293T
T4 sequence (P41145 whole entry D266A): as the sequence (P41145 whole entry D105A) above, with A105D, D266A counted along it

human KOR (Gi1) [5] = target: T5, human KOR (Gi1) (Homo sapiens, UniProt P41145, D334A); conditions: HEK-293T
T5 construct: expressed in transfected cells; host or cells: HEK293T
T5 sequence (P41145 whole entry D334A): as the sequence (P41145 whole entry D105A) above, with A105D, D334A counted along it

human KOR (Gi1) [6] = target: T6, human KOR (Gi1) (Homo sapiens, UniProt P41145, F114L); conditions: HEK-293T
T6 construct: expressed in transfected cells; host or cells: HEK293T
T6 sequence (P41145 whole entry F114L): as the sequence (P41145 whole entry D105A) above, with A105D, F114L counted along it

human KOR (Gi1) [7] = target: T7, human KOR (Gi1) (Homo sapiens, UniProt P41145, F283A); conditions: HEK-293T
T7 construct: expressed in transfected cells; host or cells: HEK293T
T7 sequence (P41145 whole entry F283A): as the sequence (P41145 whole entry D105A) above, with A105D, F283A counted along it

human KOR (Gi1) [8] = target: T8, human KOR (Gi1) (Homo sapiens, UniProt P41145, G319L); conditions: HEK-293T
T8 construct: expressed in transfected cells; host or cells: HEK293T
T8 sequence (P41145 whole entry G319L): as the sequence (P41145 whole entry D105A) above, with A105D, G319L counted along it

human KOR (Gi1) [9] = target: T9, human KOR (Gi1) (Homo sapiens, UniProt P41145, K200A); conditions: HEK-293T
T9 construct: expressed in transfected cells; host or cells: HEK293T
T9 sequence (P41145 whole entry K200A): as the sequence (P41145 whole entry D105A) above, with A105D, K200A counted along it

human KOR (Gi1) [10] = target: T10, human KOR (Gi1) (Homo sapiens, UniProt P41145, L253A); conditions: HEK-293T
T10 construct: expressed in transfected cells; host or cells: HEK293T
T10 sequence (P41145 whole entry L253A): as the sequence (P41145 whole entry D105A) above, with A105D, L253A counted along it

human KOR (Gi1) [11] = target: T11, human KOR (Gi1) (Homo sapiens, UniProt P41145, N141A); conditions: HEK-293T
T11 construct: expressed in transfected cells; host or cells: HEK293T
T11 sequence (P41145 whole entry N141A): as the sequence (P41145 whole entry D105A) above, with A105D, N141A counted along it

human KOR (Gi1) [12] = target: T12, human KOR (Gi1) (Homo sapiens, UniProt P41145, N326A); conditions: HEK-293T
T12 construct: expressed in transfected cells; host or cells: HEK293T
T12 sequence (P41145 whole entry N326A): as the sequence (P41145 whole entry D105A) above, with A105D, N326A counted along it

human KOR (Gi1) [13] = target: T13, human KOR (Gi1) (Homo sapiens, UniProt P41145, Q115N); conditions: HEK-293T
T13 construct: expressed in transfected cells; host or cells: HEK293T
T13 sequence (P41145 whole entry Q115N): as the sequence (P41145 whole entry D105A) above, with A105D, Q115N counted along it

human KOR (Gi1) [14] = target: T14, human KOR (Gi1) (Homo sapiens, UniProt P41145, R170A); conditions: HEK-293T
T14 construct: expressed in transfected cells; host or cells: HEK293T
T14 sequence (P41145 whole entry R170A): as the sequence (P41145 whole entry D105A) above, with A105D, R170A counted along it

human KOR (Gi1) [15] = target: T15, human KOR (Gi1) (Homo sapiens, UniProt P41145, R257A); conditions: HEK-293T
T15 construct: expressed in transfected cells; host or cells: HEK293T
T15 sequence (P41145 whole entry R257A): as the sequence (P41145 whole entry D105A) above, with A105D, R257A counted along it

human KOR (Gi1) [16] = target: T16, human KOR (Gi1) (Homo sapiens, UniProt P41145, R271A); conditions: HEK-293T
T16 construct: expressed in transfected cells; host or cells: HEK293T
T16 sequence (P41145 whole entry R271A): as the sequence (P41145 whole entry D105A) above, with A105D, R271A counted along it

human KOR (Gi1) [17] = target: T17, human KOR (Gi1) (Homo sapiens, UniProt P41145, R274A); conditions: HEK-293T
T17 construct: expressed in transfected cells; host or cells: HEK293T
T17 sequence (P41145 whole entry R274A): as the sequence (P41145 whole entry D105A) above, with A105D, R274A counted along it

human KOR (Gi1) [18] = target: T18, human KOR (Gi1) (Homo sapiens, UniProt P41145, T94V); conditions: HEK-293T
T18 construct: expressed in transfected cells; host or cells: HEK293T
T18 sequence (P41145 whole entry T94V): as the sequence (P41145 whole entry D105A) above, with T94V, A105D counted along it

human KOR (Gi1) [19] = target: T19, human KOR (Gi1) (Homo sapiens, UniProt P41145, Y139L); conditions: HEK-293T
T19 construct: expressed in transfected cells; host or cells: HEK293T
T19 sequence (P41145 whole entry Y139L): as the sequence (P41145 whole entry D105A) above, with A105D, Y139L counted along it

human KOR (Gi1) [20] = target: T20, human KOR (Gi1) (Homo sapiens, UniProt P41145, Y320L); conditions: HEK-293T
T20 construct: expressed in transfected cells; host or cells: HEK293T
T20 sequence (P41145 whole entry Y320L): as the sequence (P41145 whole entry D105A) above, with A105D, Y320L counted along it

human KOR (Gi3) [21] = target: T21, human KOR (Gi3) (Homo sapiens, UniProt P41145)
T21 construct: expressed in transfected cells; host or cells: HEK293T
T21 sequence (P41145 whole entry): as the sequence (P41145 whole entry D105A) above, with A105D counted along it

human KOR (Gi3) [22] = target: T22, human KOR (Gi3) (Homo sapiens, UniProt P41145, D105A); conditions: HEK-293T
T22 construct: expressed in transfected cells; host or cells: HEK293T
T22 sequence (P41145 whole entry D105A): as the sequence (P41145 whole entry D105A) above

human KOR (Gi3) [23] = target: T23, human KOR (Gi3) (Homo sapiens, UniProt P41145, D155A); conditions: HEK-293T
T23 construct: expressed in transfected cells; host or cells: HEK293T
T23 sequence (P41145 whole entry D155A): as the sequence (P41145 whole entry D105A) above, with A105D, D155A counted along it

human KOR (Gi3) [24] = target: T24, human KOR (Gi3) (Homo sapiens, UniProt P41145, E297A); conditions: HEK-293T
T24 construct: expressed in transfected cells; host or cells: HEK293T
T24 sequence (P41145 whole entry E297A): as the sequence (P41145 whole entry D105A) above, with A105D, E297A counted along it

human KOR (Gi3) [25] = target: T25, human KOR (Gi3) (Homo sapiens, UniProt P41145, F283A); conditions: HEK-293T
T25 construct: expressed in transfected cells; host or cells: HEK293T
T25 sequence (P41145 whole entry F283A): as the sequence (P41145 whole entry D105A) above, with A105D, F283A counted along it

human KOR (Gi3) [26] = target: T26, human KOR (Gi3) (Homo sapiens, UniProt P41145, N322A); conditions: HEK-293T
T26 construct: expressed in transfected cells; host or cells: HEK293T
T26 sequence (P41145 whole entry N322A): as the sequence (P41145 whole entry D105A) above, with A105D, N322A counted along it

human KOR (Gi3) [27] = target: T27, human KOR (Gi3) (Homo sapiens, UniProt P41145, N326A); conditions: HEK-293T
T27 construct: expressed in transfected cells; host or cells: HEK293T
T27 sequence (P41145 whole entry N326A): as the sequence (P41145 whole entry D105A) above, with A105D, N326A counted along it

human KOR (Gi3) [28] = target: T28, human KOR (Gi3) (Homo sapiens, UniProt P41145, Q115N); conditions: HEK-293T
T28 construct: expressed in transfected cells; host or cells: HEK293T
T28 sequence (P41145 whole entry Q115N): as the sequence (P41145 whole entry D105A) above, with A105D, Q115N counted along it

human KOR (Gi3) [29] = target: T29, human KOR (Gi3) (Homo sapiens, UniProt P41145, R257A); conditions: HEK-293T
T29 construct: expressed in transfected cells; host or cells: HEK293T
T29 sequence (P41145 whole entry R257A): as the sequence (P41145 whole entry D105A) above, with A105D, R257A counted along it

human KOR (Gi3) [30] = target: T30, human KOR (Gi3) (Homo sapiens, UniProt P41145, R271A); conditions: HEK-293T
T30 construct: expressed in transfected cells; host or cells: HEK293T
T30 sequence (P41145 whole entry R271A): as the sequence (P41145 whole entry D105A) above, with A105D, R271A counted along it

human KOR (Gi3) [31] = target: T31, human KOR (Gi3) (Homo sapiens, UniProt P41145, T94V); conditions: HEK-293T
T31 construct: expressed in transfected cells; host or cells: HEK293T
T31 sequence (P41145 whole entry T94V): as the sequence (P41145 whole entry D105A) above, with T94V, A105D counted along it

human KOR (Gi3) [32] = target: T32, human KOR (Gi3) (Homo sapiens, UniProt P41145, Y139L); conditions: HEK-293T
T32 construct: expressed in transfected cells; host or cells: HEK293T
T32 sequence (P41145 whole entry Y139L): as the sequence (P41145 whole entry D105A) above, with A105D, Y139L counted along it

human KOR = human KOR (Homo sapiens, UniProt P41145); design: expressed in transfected cells; host or cells: HEK 293T (ATCC, CRL-3216); conditions: HTLA
human KOR, sequence (P41145 whole entry): as the sequence (P41145 whole entry D105A) above, with A105D counted along it

[33] = read-out: KOR WT_Arrestin response (Figure S4D)
[34] = read-out: Tango response (Figure S4C)

T1 sequence (P41145 whole entry): as the sequence (P41145 whole entry D105A) above, with A105D counted along it

Structure (SMILES): CN(C(=O)/C=C/c1ccoc1)[C@@H]1CC[C@@]2(O)[C@H]3Cc4ccc(O)c5c4[C@@]2(CCN3CC2CC2)[C@H]1O5 [Nalfurafine, nalfurafine]
- Emax% (human KOR (Gi1) [1]): 101.1% and 100%
- Emax (human KOR (Gi1) [1]; HEK-293T): 85 ± 7%
- Emax (human KOR (Gi1) [2]): 94.3%
- Emax (human KOR (Gi1) [3]): 79.1%
- Emax (human KOR (Gi1) [4]): 106%
- Emax (human KOR (Gi1) [5]): 77.5%
- Emax (human KOR (Gi1) [6]): 65.5%
- Emax (human KOR (Gi1) [7]): 77.6%
- Emax (human KOR (Gi1) [8]): 116%
- Emax (human KOR (Gi1) [9]): 96.1%
- Emax (human KOR (Gi1) [10]): 106%
- Emax (human KOR (Gi1) [11]): 101%
- Emax (human KOR (Gi1) [12]): 108%
- Emax (human KOR (Gi1) [13]): 77.3%
- Emax (human KOR (Gi1) [14]): 58.7%
- Emax (human KOR (Gi1) [15]): 99.5%
- Emax (human KOR (Gi1) [16]): 105%
- Emax (human KOR (Gi1) [17]): 100%
- Emax (human KOR (Gi1) [18]): 99.2%
- Emax (human KOR (Gi1) [19]): 96.7%
- Emax (human KOR (Gi1) [20]): 76.3%
- Emax% (human KOR (Gi3) [21]): 99.93%
- Emax (human KOR (Gi3) [21]; HEK-293T): 100%
- Emax (human KOR (Gi3) [22]): 81.7%
- Emax (human KOR (Gi3) [23]): 77.8%
- Emax (human KOR (Gi3) [24]): 100%
- Emax (human KOR (Gi3) [25]): 74.8%
- Emax (human KOR (Gi3) [26]): 95.8%
- Emax (human KOR (Gi3) [27]): 106%
- Emax (human KOR (Gi3) [28]): 78.7%
- Emax (human KOR (Gi3) [29]): 100%
- Emax (human KOR (Gi3) [30]): 103%
- Emax (human KOR (Gi3) [31]): 98.2%
- Emax (human KOR (Gi3) [32]): 96%
- Emax (human KOR): 100 ± 5%
- activation at 3.162 pM (human KOR; [33]): 21.6%
- activation at 10 pM (human KOR; [33]): 33.5%
- activation at 31.62 pM (human KOR; [33]): 37.7%
- activation at 0.0001 µM (human KOR; [33]): 65.6%
- activation at 0.001 µM (human KOR; [33]): 67.9%
- activation at 0.01 µM (human KOR; [33]): 76.6%
- activation at 0.1 µM (human KOR; [33]): 97.1%
- activation at 1 µM (human KOR; [33]): 106%
- activation at […] (human KOR; [33]): 68.4% and 74.4% and 96.9% and 96.5%
- activation at 10 pM (human KOR; read-out: Tango response): 21.8%
- activation at 31.62 pM (human KOR; read-out: Tango response): 35.1%
- activation at 0.0001 µM (human KOR; read-out: Tango response): 39.8%
- activation at 0.001 µM (human KOR; read-out: Tango response): 74.2%
- activation at 0.01 µM (human KOR; read-out: Tango response): 80.9%
- activation at 1 µM (human KOR; read-out: Tango response): 106%
- activation at […] (human KOR; read-out: Tango response): 71% and 100%
- activation at 0.0001 µM (human KOR; [34]): 36.1%
- activation at 0.001 µM (human KOR; [34]): 74.1%
- activation at 0.1 µM (human KOR; [34]): 87.2%
- activation at 1 µM (human KOR; [34]): 87.7%
- activation at 10 µM (human KOR; [34]): 121%
- activation at […] (human KOR; [34]): 77.4% and 111%
